Entries after “also recorded” stand apart in the source; their conditions may differ.
Tested on: RAJI cells
Test: GLuc cytotoxicity assay, RAJI-GLuc cells
Format: cell-based, human
Method: (D) Assay for Cytotoxic Activity in vitro and in vivo: The uninfected T cells or those expressing a control vector or SIR are cocultured with the target cell lines expressing a non-secretory form of a luciferase (such as GLuc, NLuc, Turboluc 16 etc.) for 4-96 hours and induction of cell lysis examined by measuring the luciferase activity as described in PCT/US17/52344. Alternate methods for measurement of cytotoxic activity (e.g., ^51Cr release assay or LDH release assay) can be used as well. The activity of T cells expressing a SIR can be also assayed in vivo using appropriate xenograft models in immunodeficient mice.
Cell death assay. To measure cell death, a novel assay based on ectopic cytosolic expression of Gluc or NLuc was utilized as described in PCT/US17/52344 “A Non-Radioactive Cytotoxicity Assay”. The method involves expression of a reporter in a target cells in a manner so that it is preferentially retained within the healthy cells but is either released from dead and dying cells or whose activity can be preferentially measured in dead and dying cells. The preferred reporter for this assay are 1) non-secreted forms of luciferases from the copepods, such as Gaussia princeps, Pleuromamma abdominalis, Metridia pacifica, Metridia curticauda, Metridia asymmetrica, Metridia okhotensis, Metridia longa, Lucicutia ovaliformis, Heterorhabdus tanneri, and Pleuromamma scutullata 2) engineered luciferase reporters from deep sea shrimp, such as NanoLuc. The sequence of several such reporter vectors is provided in SEQ ID NO: 881 to SEQ ID NO: 887. The above vectors were used to generate retrovirus and lentiviruses which in turn were used to generate polyclonal population of several target cell lines stably expressing GLuc, NLuc, TurboLuc or MLuc7 following selection with appropriate antibiotics. Unless indicated otherwise, the target cells stably expressing the different luciferases (GLuc, Nluc, MLuc7 or TurboLuc16) were plated in triplicate in a 384 well plate in the media used for growing the target cells. Target cells which grow in suspension were generally plated at a concentration of 2-3×10^4 per well, while target cells which grow as adherent monolayers were plated at a concentration of 1-2×10^4 per well. Unless indicated otherwise, the target cells were cocultured with the genetically modified T cells (i.e. those expressing SIR or CAR) at an Effector:Target (E:T) ratio varying from 1:1 to 10:1 for 4 hours to 96 hours. In the case target cells grow as adherent cells (e.g., HeLa cells), they were allowed to attach to the bottom of the wells overnight before the T cells were added. T cells mediated induction of lysis of target cells was assayed by increase of luciferase activity as measured by BioTek synergy plate reader by directly injecting 0.5×CTZ assay buffer containing native coeloentrazine (Nanaolight).
CTZ assay. A 100× stock solution of native coelenterazine (CTZ; Nanolight, cat #303) was made by dissolving 1 mg of lyophilized CT powder in 1.1 ml of 100% Methanol supplemented with 30 μl of 6N HCl to avoid oxidation of CTZ with time. To make CTZ assay buffer, the 100× stock solution of CTZ was diluted to 0.5× concentration in PBS. Unless indicated otherwise, a total volume of 15 μl of the CTZ assay buffer (as prepared above) was added to each well of a 384-well white plate (Greiner, 384 well white plate cat #781075) containing cells expressing the non-secretory form of the luciferase in approximately 50-60 μl volume of medium and plates were read for luminescence in endpoint mode using BioTek synergyH4 plate reader. For 96 well plates, cells were plated in 200 μl of media and approximately 50 μl of 0.5×CTZ assay buffer was added. Unless indicated otherwise, the 0.5×CTZ assay buffer was used for assaying the activity of GLuc, TurboLuc16, and MLuc7. The CTZ assay buffer (diluted to 0.125× concentration) was also used for measurement of NLuc activity in some experiments (see below).

Substance: CD8SP-CD19Bu12-vL-V5-[TCRb-S57C-opt1]-F-P2A-SP-CD19Bu12-vH-Myc-[TCRa-T48C-opt1]-F-F2A-PAC [SEQ ID NO:1021]
- lysis of target cells by increase of GLuc activity (in words) (E:T 1:1, 96 hours): increase in GLuc activity
- lysis of target cells by increase of GLuc activity (in words) (E:T 10:1, 4 hours): increase in GLuc activity
- mean Gluc values (E:T 10:1, 4 hours): 2547

Substance: CD8SP-FMC63-vL-V5-[TCRb-S57C-opt1]-F-P2A-SP-FMC63-vH-Myc-[TCRa-T48C-opt1]-F-F2A-PAC [SEQ ID NO:900]
- lysis of target cells by increase of GLuc activity (in words) (E:T 1:1, 96 hours): increase in GLuc activity
- lysis of target cells by increase of GLuc activity (in words) (E:T 10:1, 4 hours): increase in GLuc activity; also recorded: induced effective target cell lysis; also recorded: Modest cytotoxicity
- mean Gluc values (E:T 10:1, 4 hours): 3042
